Source: patent publication US9580390B2, “Indazole compounds as kinase inhibitors and method of treating cancer with same” (University Health Network, priority 2011, dated 2017)
Like-named read-outs stand apart in the source and are kept apart here.

What was measured:
[1] = test system: colon cancer cells (HCT116); experiment: Cancer cell line growth inhibition (SRB assay); format: cell-based; conditions: read-out: Cancer Cell Line GI50 Range HCT116
human TTK = target: T1, human TTK (Homo sapiens, UniProt P33981); experiment: TTK inhibition assay (indirect ELISA); format: biochemical
T1 construct: amino terminal GST fusion of full length human TTK; purchased Invitrogen
T1 sequence (P33981 1-857): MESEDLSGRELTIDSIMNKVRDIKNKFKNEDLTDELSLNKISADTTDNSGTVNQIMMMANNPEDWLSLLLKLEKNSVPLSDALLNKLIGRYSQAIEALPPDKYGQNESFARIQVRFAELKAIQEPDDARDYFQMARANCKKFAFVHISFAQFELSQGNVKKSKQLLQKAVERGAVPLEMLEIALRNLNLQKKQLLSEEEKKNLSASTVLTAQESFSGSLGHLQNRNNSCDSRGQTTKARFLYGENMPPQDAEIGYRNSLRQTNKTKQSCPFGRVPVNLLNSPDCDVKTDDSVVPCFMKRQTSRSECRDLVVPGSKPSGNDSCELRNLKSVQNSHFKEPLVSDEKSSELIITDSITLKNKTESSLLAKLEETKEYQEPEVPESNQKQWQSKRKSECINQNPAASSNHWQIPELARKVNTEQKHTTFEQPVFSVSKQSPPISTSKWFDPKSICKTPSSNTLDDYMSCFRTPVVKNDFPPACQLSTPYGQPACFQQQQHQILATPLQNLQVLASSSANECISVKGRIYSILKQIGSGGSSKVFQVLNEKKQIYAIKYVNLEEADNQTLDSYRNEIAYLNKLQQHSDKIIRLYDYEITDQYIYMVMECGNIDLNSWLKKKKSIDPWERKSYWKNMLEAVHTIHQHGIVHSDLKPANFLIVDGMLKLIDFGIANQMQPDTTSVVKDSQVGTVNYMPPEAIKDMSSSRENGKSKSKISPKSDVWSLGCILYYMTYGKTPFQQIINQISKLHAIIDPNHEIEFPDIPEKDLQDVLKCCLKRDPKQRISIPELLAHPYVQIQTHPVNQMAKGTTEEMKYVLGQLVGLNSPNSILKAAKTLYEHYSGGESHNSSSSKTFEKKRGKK

TICs (Colon 12) = experiment: Colon tumor-initiating cell growth inhibition (Alamar Blue); format: cell-based; conditions: 9 days, read-out: Tumor Initiating Cell GI50 Range Colon 12
TICs (Ovarian 2393A) = experiment: Ovarian tumor-initiating cell growth inhibition (Alamar Blue); format: cell-based; conditions: 6 days, read-out: Tumor Initiating Cell GI50 Range Ovarain 2393A
[2] = test system: ovarian cancer cells (PA-1); experiment: Cancer cell line growth inhibition (SRB assay); format: cell-based; conditions: read-out: Cancer Cell Line GI50 Range PA-1
[3] = Homo sapiens, HCT-116, HCT116 colon cancer cells, SRB assay
[4] = PA-1 ovarian cancer cells, SRB assay
[5] = 144 h, ovarian TICs, Alamar Blue

Row | IC50 (human TTK; read-out: TTK IC50 Range) | GI50 ([1]; Homo sapiens, HCT-116) | GI50 (TICs (Colon 12); 216 h, Colon 12 TICs) | GI50 ([2]; Homo sapiens, PA-1) | GI50 (TICs (Ovarian 2393A); 144 h, Ovarian 2393A TICs) | Compound | also measured
1 |  | < 100 nM | 100 to 500 nM | < 100 nM | 100 to 500 nM | CN1CCC(Oc2ccc(-c3n[nH]c4ccc(C(=O)NC(c5ccccn5)C5CCC5)cc34)cc2)CC1 (stereo not shown) [Example A210, N-(cyclobutyl(pyridin-2-yl)methyl)-3-(4-((1-methylpiperidin-4-yl)oxy)phenyl)-1H-indazole-5-carboxamide] | 
2 |  | < 100 nM | 100 to 500 nM | < 100 nM | < 100 nM | O=CN1CCC(Oc2ccc(-c3n[nH]c4ccc(C(=O)N[C@H](c5ncccc5Cl)C5CC5)cc34)cc2)CC1 [Example A212, (S)-N-((3-chloropyridin-2-yl)(cyclopropyl)methyl)-3-(4-((1-formylpiperidin-4-yl)oxy)phenyl)-1H-indazole-5-carboxamide] | 
3 |  | < 100 nM | > 500 nM | < 100 nM | < 100 nM | CN1CCC(Oc2ccc(-c3n[nH]c4ccc(C(=O)N[C@H](c5ccccn5)C5CC5)cc34)cc2)CC1 [Example A214, (S)-N-(cyclopropyl(pyridin-2-yl)methyl)-3-(4-((1-methylpiperidin-4-yl)oxy)phenyl)-1H-indazole-5-carboxamide] | 
4 |  | < 100 nM | < 100 nM | < 100 nM | 100 to 500 nM | O=C(N[C@@H](c1ncccc1Cl)C1CC1)c1ccc2[nH]nc(-c3ccc(OC4CCN(C5COC5)CC4)cc3)c2c1 [Example A215, (R)-N-((3-chloropyridin-2-yl)(cyclopropyl)methyl)-3-(4-((1-(oxetan-3-yl)piperidin-4-yl)oxy)phenyl)-1H-indazole-5-carboxamide] | 
5 |  | < 100 nM | < 100 nM | < 100 nM | < 100 nM | O=C(N[C@H](c1ncccc1Cl)C1CC1)c1ccc2[nH]nc(-c3ccc(OC4CCN(C5COC5)CC4)cc3)c2c1 [Example A216, (S)-N-((3-chloropyridin-2-yl)(cyclopropyl)methyl)-3-(4-((1-(oxetan-3-yl)piperidin-4-yl)oxy)phenyl)-1H-indazole-5-carboxamide] | 
6 | < 100 nM | < 100 nM | 100 to 500 nM | < 100 nM | 100 to 500 nM | CC(C)(O)CN1CCC(Oc2ccc(-c3n[nH]c4ccc(C(=O)N[C@H](c5ccccn5)C5CC5)cc34)cc2)CC1 [Example A217, (S)-N-(cyclopropyl(pyridin-2-yl)methyl)-3-(4-((1-(2-hydroxy-2-methylpropyl)piperidin-4-yl)oxy)phenyl)-1H-indazole-5-carboxamide] | 
7 | < 100 nM | < 100 nM | 100 to 500 nM | < 100 nM | 100 to 500 nM | C[C@@H](O)CN1CCC(Oc2ccc(-c3n[nH]c4ccc(C(=O)N[C@H](c5ccccn5)C5CC5)cc34)cc2)CC1 [Example A221, N-((S)-cyclopropyl(pyridin-2-yl)methyl)-3-(4-((1-((R)-2-hydroxypropyl)piperidin-4-yl)oxy)phenyl)-1H-indazole-5-carboxamide] | 

More lines, now with the values behind:

Row | Compound | IC50 (human TTK; read-out: TTK IC50 Range) | GI50 ([1]; Homo sapiens, HCT-116) | GI50 (TICs (Colon 12); 216 h, Colon 12 TICs) | GI50 ([2]; Homo sapiens, PA-1) | GI50 (TICs (Ovarian 2393A); 144 h, Ovarian 2393A TICs) | also measured
8 | CN1CCC(Nc2ccc(-c3n[nH]c4ccc(NC(=O)C(c5ccsc5)N5CCCC5)cc34)cc2)CC1 (stereo not shown) [Example A25] | < 100 nM |  |  |  |  | GI50 ([1]; HCT116 colon cancer cells, SRB assay): < 100 nM; GI50 (TICs (Colon 12); colon TICs, Alamar Blue): 100 to 500 nM; GI50 (TICs (Ovarian 2393A); ovarian TICs, Alamar Blue): < 100 nM
9 | COCCN1CCC(Oc2ccc(-c3n[nH]c4ccc(C(=O)N[C@H](c5cccs5)C5CC5)cc34)cc2)CC1 [Example A163] | < 100 nM |  |  |  |  | GI50 [1, 3]: < 100 nM; GI50 (TICs (Colon 12); 216 h, colon TICs, Alamar Blue): 100 to 500 nM; GI50 [2, 4]: < 100 nM; GI50 (TICs (Ovarian 2393A); [5]): 100 to 500 nM
10 | O=C(Nc1ccc2[nH]nc(-c3ccc(N4CCC(O)CC4)cc3)c2c1)C(c1ccsc1)N1CCC1 (stereo not shown) [Example A200, 2-(azetidin-1-yl)-N-(3-(4-(4-hydroxypiperidin-1-yl)phenyl)-1H-indazol-5-yl)-2-(thiophen-3-yl)acetamide] |  |  |  |  |  | GI50 [1, 3]: < 100 nM; GI50 (TICs (Colon 12); 216 h, colon TICs, Alamar Blue): 100 to 500 nM; GI50 [2, 4]: < 100 nM; GI50 (TICs (Ovarian 2393A); [5]): < 100 nM
11 | CC(C)(O)C1CCN(c2ccc(-c3n[nH]c4ccc(NC(=O)C(c5ccsc5)N5CCC5)cc34)cc2)CC1 (stereo not shown) [Example A201, 2-(azetidin-1-yl)-N-(3-(4-(4-(2-hydroxypropan-2-yl)piperidin-1-yl)phenyl)-1H-indazol-5-yl)-2-(thiophen-3-yl)acetamide] |  |  |  |  |  | GI50 [1, 3]: < 100 nM; GI50 (TICs (Colon 12); 216 h, colon TICs, Alamar Blue): < 100 nM; GI50 [2, 4]: < 100 nM; GI50 (TICs (Ovarian 2393A); [5]): < 100 nM
12 | O=CN1CCC(Oc2ccc(-c3n[nH]c4ccc(C(=O)N[C@H](c5ccccn5)C5CC5)cc34)cc2)CC1 [Example A204, (S)-N-(cyclopropyl(pyridin-2-yl)methyl)-3-(4-((1-formylpiperidin-4-yl)oxy)phenyl)-1H-indazole-5-carboxamide] |  |  |  |  |  | GI50 [1, 3]: < 100 nM; GI50 (TICs (Colon 12); 216 h, colon TICs, Alamar Blue): < 100 nM; GI50 [2, 4]: < 100 nM; GI50 (TICs (Ovarian 2393A); [5]): < 100 nM
13 | CN1[C@@H]2CC[C@H]1C[C@@H](Oc1ccc(-c3n[nH]c4ccc(C(=O)N[C@H](c5ccccn5)C5CC5)cc34)cc1)C2 [Example A213, N-((S)-cyclopropyl(pyridin-2-yl)methyl)-3-(4-(((1R,3R,5S)-8-methyl-8-azabicyclo[3.2.1]octan-3-yl)oxy)phenyl)-1H-indazole-5-carboxamide] |  | < 100 nM | > 500 nM | < 100 nM | < 100 nM | 
14 | CC(C)C[C@H](NC(=O)c1ccc2[nH]nc(-c3ccc(N4C5CCC4CC(O)C5)cc3)c2c1)c1ccccn1 (stereo partly drawn) [Example A301, 3-(4-((1R,3S,5S)-3-hydroxy-8-azabicyclo[3.2.1]octan-8-yl)phenyl)-N-((S)-3-methyl-1-(pyridin-2-yl)butyl)-1H-indazole-5-carboxamide] |  | < 100 nM | < 100 nM | < 100 nM | < 100 nM | IC50 (human TTK): < 100 nM
15 | CC(C)C[C@@H](NC(=O)c1ccc2[nH]nc(-c3ccc(N4C5CCC4CC(O)C5)cc3)c2c1)c1ccccn1 (stereo partly drawn) [Example A305, 3-(4-((1R,3R,5S)-3-hydroxy-8-azabicyclo[3.2.1]octan-8-yl)phenyl)-N-((R)-3-methyl-1-(pyridin-2-yl)butyl)-1H-indazole-5-carboxamide] |  | < 100 nM | < 100 nM | < 100 nM | < 100 nM | IC50 (human TTK): < 100 nM
16 | O=C(N[C@H](c1ccccn1)C1CC1)c1ccc2[nH]nc(-c3ccc(N4C5CCC4CC(O)C5)cc3)c2c1 (stereo partly drawn) [Example A307, N-((S)-cyclopropyl(pyridin-2-yl)methyl)-3-(4-((1R,3R,5S)-3-hydroxy-8-azabicyclo[3.2.1]octan-8-yl)phenyl)-1H-indazole-5-carboxamide] | < 100 nM |  |  |  |  | GI50 ([1]; HCT116): < 100 nM; GI50 (TICs (Colon 12); Colon 12 TICs): 100 to 500 nM; GI50 ([2]; PA-1): < 100 nM; GI50 (TICs (Ovarian 2393A); Ovarian 2393A TICs): 100 to 500 nM
17 | O=C(N[C@H](c1ccccn1)C1CC1)c1ccc2[nH]nc(-c3ccc(OC4CC5CCC(C4)N5C4COC4)cc3)c2c1 (stereo partly drawn) [Example A320, N-((S)-cyclopropyl(pyridin-2-yl)methyl)-3-(4-(((1R,3R,5S)-8-(oxetan-3-yl)-8-azabicyclo[3.2.1]octan-3-yl)oxy)phenyl)-1H-indazole-5-carboxamide] | < 100 nM | < 100 nM | < 100 nM | < 100 nM | 100 to 500 nM | 
18 | CN1CCC(Oc2ccc(-c3n[nH]c4ccc(C(=O)NCC5(N6CCOCC6)CCCCC5)cc34)cc2)CC1 [Example A449, 3-(4-((1-methylpiperidin-4-yl)oxy)phenyl)-N-((1-morpholinocyclohexyl)methyl)-1H-indazole-5-carboxamide] | < 100 nM |  |  |  |  | GI50 [1, 3]: < 100 nM; GI50 (TICs (Colon 12); 216 h, colon TICs, Alamar Blue): < 100 nM; GI50 (TICs (Ovarian 2393A); [5]): 100 to 500 nM
